The results in this text go back to ChEMBL document CHEMBL3616475 (Bioorg Med Chem, 2015).

Structures are written as SMILES. Active and inactive are the calls of the source. The rule behind the calls is not given here.

In test [1] the target is T1, Adenosine receptor A2a (Rattus norvegicus, UniProt P30543). Nature of the test: Displacement of [3H]-NECA from Adenosine A2A receptor in Sprague-Dawley rat striatal membranes. Further details: species or system Striatum, Membrane. A general note: Loss of bound radioactivity is the signal in a displacement assay; it reports binding, not function.
The target of test [2] is T2, Adenosine receptor A1 (Rattus norvegicus, UniProt P25099).
T2 sequence (P25099 whole entry): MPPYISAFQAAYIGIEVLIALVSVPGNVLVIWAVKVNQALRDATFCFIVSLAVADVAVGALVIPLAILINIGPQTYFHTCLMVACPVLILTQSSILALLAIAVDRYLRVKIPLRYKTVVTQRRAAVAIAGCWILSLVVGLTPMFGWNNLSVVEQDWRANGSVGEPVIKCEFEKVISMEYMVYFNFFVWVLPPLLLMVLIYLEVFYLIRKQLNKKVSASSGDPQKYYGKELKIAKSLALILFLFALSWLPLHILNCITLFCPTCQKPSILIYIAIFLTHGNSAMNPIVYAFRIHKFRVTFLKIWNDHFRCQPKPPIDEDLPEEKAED
The test can be described thus: Displacement of [3H]-DPCPX from Adenosine A1 receptor in Sprague-Dawley rat whole brain membranes. On the set-up: species or system Membrane.

The species named for test [3] is Rattus norvegicus. Nature of the test: Selectivity ratio of Ki for Adenosine A2A receptor in Sprague-Dawley rat striatal membranes to Ki for Adenosine A1 receptor in Sprague-Dawley rat whole brain membranes.
Test [4] has as its target T1, Adenosine receptor A2a. The test can be described thus: Binding affinity to Adenosine A2A receptor in rat brain tissue by radioligand displacement assay. It is filed as tissue-based.
The target of test [5] is T2, Adenosine receptor A1.
Description: Displacement of [3H]-DPCPX from Adenosine A1 receptor in Sprague-Dawley rat brain cortical membranes in absence of GTP
The target in test [6] is T2, Adenosine receptor A1. The source holds these as a separate data set.
Description: Displacement of [3H]-DPCPX from Adenosine A1 receptor in Sprague-Dawley rat whole brain membranes in presence of 0.1 mM GTP
The target of test [7] is T2, Adenosine receptor A1. This is another data set of the same source.
Description: Displacement of [3H]-DPCPX from Adenosine A1 receptor in Sprague-Dawley rat whole brain membranes in absence of GTP
Test [8] deals with T2, Adenosine receptor A1. The source holds these as a separate data set.
Description: Displacement of [3H]-DPCPX from Adenosine A1 receptor in Sprague-Dawley rat brain cortical membranes in presence of 0.1 mM GTP
Test [9] deals with Rattus norvegicus. The test can be described thus: Inhibition of CPA-induced hypolocomotion in Sprague-Dawley rat at 0.06 to […], ip administered 25 mins prior to CPA addition measured for 20 mins starting from 5 mins post habituation.
Test [10] deals with Rattus norvegicus. Nature of the test: Inhibition of CPA-induced hypolocomotion in Sprague-Dawley rat at 0.03 to 0.1 mg/kg, ip administered 25 mins prior to CPA addition measured for 20 mins starting from 5 mins post habituation. It is filed as functional, organism-based.

T1 sequence (P30543 whole entry): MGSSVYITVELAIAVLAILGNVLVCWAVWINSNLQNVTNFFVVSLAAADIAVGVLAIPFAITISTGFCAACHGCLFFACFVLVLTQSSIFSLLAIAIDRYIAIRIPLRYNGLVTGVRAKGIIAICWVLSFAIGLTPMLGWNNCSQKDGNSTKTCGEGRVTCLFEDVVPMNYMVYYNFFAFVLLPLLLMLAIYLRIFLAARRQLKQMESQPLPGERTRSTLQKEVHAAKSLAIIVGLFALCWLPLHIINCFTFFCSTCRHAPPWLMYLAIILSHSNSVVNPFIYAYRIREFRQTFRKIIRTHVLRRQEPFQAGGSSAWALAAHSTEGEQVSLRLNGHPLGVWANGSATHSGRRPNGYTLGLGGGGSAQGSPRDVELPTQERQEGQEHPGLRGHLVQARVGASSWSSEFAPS

As a reminder, the Ki is a dissociation constant, usually derived from enzyme kinetics or from competition with a known ligand. A low value points to tighter binding. For the molecule `Cn1c(=O)c2c(nc(COc3ccccc3)n2C)n(C)c1=O`, the Ki in test [1] amounted to 2370 nM; in test [2], 3090 nM. In addition, the Ratio Ki in test [3] is 0.77.

As to `Cn1c(=O)c2c(nc(CCCc3ccccc3)n2C)n(C)c1=O`, the Ki amounted to 6800 nM in test [1] and 1550 nM in test [2]. Further, the Ratio Ki in test [3] amounted to 4.

As to `CCn1c(=O)c2c(nc(CCCc3ccccc3)n2C)n(CC)c1=O`, the Ki in test [1] was 3930 nM; in test [2] it was 1240 nM. Further, the Ratio Ki in test [3] was 3.

`Cn1c(=O)c2c(nc(-c3ccccc3)n2C)n(C)c1=O` returned a Ki in test [4] of 27000 nM.

As for `CCn1c(CCCc2ccccc2)nc2c1c(=O)n(C)c(=O)n2C`, the inhibition constant (Ki) worked out at 4930 nM in [1] and 259 nM in [2]. The Ratio Ki in [3] stood at 19.

Turning to `CCn1c(COc2ccccc2)nc2c1c(=O)n(C)c(=O)n2C`, the inhibition constant (Ki) in test [1] stood at 2250 nM; in [2] it was 1100 nM. Moreover, the Ratio Ki in test [3] turned out to be 2.

On to `CCn1c(=O)c2c(nc(COc3ccccc3)n2CC)n(CC)c1=O`, for which the inhibition constant Ki in [5] turned out to be 356 nM; in test [1] it was 2640 nM; in test [2] it was 416 nM; in [6], 397 nM; in test [7] it was 416 nM; in test [8], 368 nM. For the same molecule, the Ratio Ki in test [3] was 6.

In the case of `CCn1c(=O)c2c(nc(CCc3ccccc3)n2CC)n(CC)c1=O`, the inhibition constant (Ki) in [5] is 543 nM; in [1], 4970 nM; in test [2], 636 nM; in test [6] it was 763 nM; in test [7], 636 nM; in test [8], 681 nM. The Ratio Ki in test [3] was found to be 8.

For `CCn1c(=O)c2c(nc(CCCc3ccccc3)n2CC)n(CC)c1=O`, the inhibition constant Ki came out at 139 nM in [5]; 2710 nM in test [1]; 164 nM in test [2]; 209 nM in test [6]; 164 nM in test [7]; 258 nM in test [8]. The inhibition entry in test [9] is “Active”. For the same molecule, the Ratio Ki in [3] is 17.

As to `CCn1c(CCc2ccccc2)nc2c1c(=O)n(C)c(=O)n2C`, the inhibitory constant (Ki) in test [1] was found to be 3110 nM; in test [2], 1090 nM. The Ratio Ki in [3] was 3.

Consider `OC[C@H]1O[C@@H](n2cnc3c(NC4CCCC4)ncnc32)[C@H](O)[C@@H]1O` [N6-CYCLOPENTYLADENOSINE], for which the inhibitory constant (Ki) in test [1] amounted to 331 nM.

For `Cn1c(=O)c2c(nc(CCc3ccccc3)n2C)n(C)c1=O`, the Ki in [1] was determined as 4950 nM; in test [2], 5740 nM. Besides, in test [3], the Ratio Ki worked out at 0.86.

Consider `CCn1c(=O)c2c(nc(COc3ccccc3)n2C)n(CC)c1=O`, for which the Ki in [1] was found to be 1910 nM; in test [2], 874 nM. Also, in test [3], the Ratio Ki worked out at 2.

Regarding `CCCn1c(=O)c2[nH]c(C3CCCC3)nc2n(CCC)c1=O`, in test [10], the inhibition result was “Active”.

With `CCn1c(=O)c2c(nc(CCc3ccccc3)n2C)n(CC)c1=O`, the figures for the Ki in test [1] and in [2] were 2360 nM and 816 nM, respectively. Moreover, the Ratio Ki in [3] turned out to be 3.
